What was measured:
[1] = Iron binding (quenching of fluorescence) by fluorescein-transferrin preparations with and without oxalate and gallium; conditions: 0.6 μM indicator, 10 mM oxalate and gallium, FIGS. 8A-B
Protocol: FIGS. 8A–B graphically depict the ability of two particular preparations of iron-free-transferrin, essentially Fl-TF (FIG. 8A) and Fl-aTF (FIG. 8B), to detect free iron in the presence and absence of oxalate and Gallium [Ga(III)]. 0.6 μM of each of the indicator molecules were tested under three experimental conditions: with no addition (squares), with 10 mM Na-oxalate (circles) and with 10 mM Na-oxalate and 0.1 mM GaCl3 (triangles), Quenching of fluorescence as a function of iron concentration was measured and presented as % Original Fluorescence.
Preparation of fluorescein-conjugated apo-Transferrin (Fl-aTF) and iron depleted Transferrin (FL-TF)—100 μM 5-(4,6-dichlorotriazinyl) aminofluorescein (DCTAF, Molecular Probes, Eugene, Oreg.) from a freshly prepared 10 mM solution in dimethylsulfoxide was added to a solution containing 8 mg/ml apo-Transferrin (Kamada, Kibbutz Kama, Israel) (100 μM, based on a, MW of 80 kD) in 100 mM NaHCO3, pH 8.4. Following a 30 minute incubation at 37° C. in the dark, 5 mM L-lysine was added from a solution containing 0.5 M L-lysine, pH 8, in order to terminate the coupling reaction. The product Fl-aTF was extensively dialyzed against HBS, divided into aliquots and stored frozen at −20° C. The final preparation yielded a single fluorescent band of approximately 80 kD in polyacrylamide electrophoresis determinations. The fluoroscein concentration in Fl-aTF was determined to be 84 μM by measuring absorbance at 496 nm, using DCTAF as standard solution, giving a ratio of aTf: fluoroscein of 1:0.84.
FL-TF was prepared in an identical manner as FL-aTF, with the difference that iron-saturated human transferrin (from Kamada, Kibbutz Kama, Israel) was used instead of iron-free transferrin for reaction with DCTAF. The FL-TF was rendered iron-free by exhaustive dialysis against 37.5 mM Na-Citrate, pH 5.0, and then the citrate was removed from the preparation by exhaustive dialysis against HBS. […]

[2] = DCI in serum/plasma of Thalassemia patients undergoing oral L1-chelation therapy; type: in vivo, human; conditions: Thalassemia patients (Thailand, Israel), therapeutic oral doses of L1, minutes to hours after administration; FIGS. 6A-B
Excerpt: FIG. 5 is a schematic illustration of another embodiment of the method of the present invention directed at detecting iron mobilized from tissues into plasma by chelators such as L1 (also called deferriprone). In the example depicted, a serum sample was taken from a patient following L1 oral administration. The iron mobilized in vivo into the plasma by L1 is transferred to Fl-DFO in vitro, whereupon Fl-DFO's fluorescence is quenched commensurately with the amount of iron transferred. The basic assay is as depicted in FIG. 2. FIGS. 6A–B are graphs depicting the DCI levels in plasma of thalassemic patients (3 from Israel and 3 from Thailand, FIGS. 6B and A, respectively) treated with therapeutic doses of L1 (per os). Sampled were retrieved minutes to hours following L1 administration. […] When assessed under actual clinical conditions, with serum samples from Thalassemia patients (each patient is represented by a line in the graph) undergoing L1-chelation therapy in Thailand (FIG. 6A) and Israel (FIG. 6B), the methods of the present invention accurately reflected the L1-bound iron in the patient's plasma. DCI was detected in the samples assayed as described hereinabove (Example 2), and DCI values determined from the standard calibration curve (FIG. 4). […]

Question: With “5-4,6-dichlorotriazinyl aminofluorescein (DCTF)-apo-transferrin [Fl-aTF]” as the compound, how does the “quenching of fluorescence by iron in the presence of gallium” value (shortened to “quenching of fluorescence by iron”) ([1]; listed as FL-aTF) read?
Answer: strongly quenched by low concentrations of iron in the presence of gallium

Question: And the “quenching of fluorescence by iron” value ([1]; listed as Fl-aTf)?
Answer: not affected by Gallium

Question: Which “DCI in patient plasma after L1 administration” value [2] does the source give for `Cc1c(O)c(=O)ccn1C` [L1] here?
Answer: increases in DCI

Question: With “Fl-TF: fluorescein attached to iron-saturated human transferrin, then rendered iron-free; similar to conventional fluoresceinated Transferrin” as the compound, how does the “quenching of fluorescence by iron” value [1] read?
Answer: inhibition of Fl-TF fluorescence quenching by gallium was clearly observed

Source: US7090995B2, “Molecules and methods using same for measuring non-transferrin bound iron” (Yissum Research Development Company of the Hebrew …, priority 2000, dated 2006)
